# Experimental data as given in PMC11192711, “Automated radiosynthesis and preclinical evaluation of two new PSMA-617 derivatives radiolabelled via [^18F]AlF^2+ method” (EJNMMI Radiopharmacy and Chemistry, 2024).
# Key:
# PSMA = target: T1, PSMA (Homo sapiens, UniProt Q04609); assay: Competitive cell binding assay on fixed PC3-PIP cells against [^18F]F-PSMA-1007; details: 0.75 nM [^18F]F-PSMA-1007, 60 min room temperature, read-out: inhibition potency toward PMSA (IC50)
# T1 construct: expressed in transfected cells; host or cells: PC3-PIP cells (PC3 stably expressing PSMA), fixed with 0.2% glutaraldehyde
# T1 sequence (Q04609 whole entry): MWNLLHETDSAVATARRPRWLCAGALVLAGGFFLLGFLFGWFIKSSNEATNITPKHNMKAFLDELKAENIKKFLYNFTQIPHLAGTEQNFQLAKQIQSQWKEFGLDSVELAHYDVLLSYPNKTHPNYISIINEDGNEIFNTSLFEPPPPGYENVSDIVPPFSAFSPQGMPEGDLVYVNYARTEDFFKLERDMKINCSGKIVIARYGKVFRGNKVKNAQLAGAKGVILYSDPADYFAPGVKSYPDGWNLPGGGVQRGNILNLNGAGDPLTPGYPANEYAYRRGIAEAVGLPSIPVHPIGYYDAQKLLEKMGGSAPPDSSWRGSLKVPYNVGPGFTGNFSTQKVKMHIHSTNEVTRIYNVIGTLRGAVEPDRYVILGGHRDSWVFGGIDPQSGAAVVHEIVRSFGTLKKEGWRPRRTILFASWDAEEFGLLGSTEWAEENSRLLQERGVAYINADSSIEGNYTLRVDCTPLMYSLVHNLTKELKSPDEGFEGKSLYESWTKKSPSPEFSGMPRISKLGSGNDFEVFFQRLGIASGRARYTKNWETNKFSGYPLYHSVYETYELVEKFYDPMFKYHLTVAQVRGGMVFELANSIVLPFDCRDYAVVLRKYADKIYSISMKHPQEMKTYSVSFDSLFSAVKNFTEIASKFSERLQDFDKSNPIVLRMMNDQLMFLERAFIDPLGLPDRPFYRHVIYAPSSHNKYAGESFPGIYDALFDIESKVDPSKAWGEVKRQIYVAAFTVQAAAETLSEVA
# Experimental: Competitive cell binding experiments were conducted using PC3-PIP cells, [^18F]F-PSMA-1007, 300 nM PSMA-1007, and 8 different concentrations of PSMA-617-NODA (7) and PSMA-617-RESCA (9) (0, 0.01, 0.1, 1, 10, 100, 1000, 10,000 nM).
# For in vitro uptake, the PC3-PIP cell line, which is isogenic to PC3 and stably expresses PSMA(Ghosh et al. [2005]), and PC-3 cell line (PSMA negative) were used. 40.000 PC3-PIP and PC3 cells were seeded in 96-well cell culture plates and at the confluence were fixed adding 100 µl of 0.2% glutaraldehyde in PBS to medium. After 5 min incubation at 37 °C, the cells were washed six times with PBS. Then 200 µl of 0.1 M Glycine in PBS with 0.02% of sodium azide were added. After 5 min, the cells were washed 6 times with PBS and finally 250 µl of 1% BSA in PBS with 0.2% of sodium azide were added. The competitive cell binding assays were performed as follows: PC3-PIP fixed cells were incubated with [^18F]F-PSMA-1007 at a concentration of 0.75 nM in the presence of 8 different concentrations of PSMA-617-NODA (7) and PSMA-617-RESCA (9) (0, 0.01, 0.1, 1, 10, 100, 1000, 10,000 nM) and of 300 nM of PSMA-1007. […] The activity in the supernatants and cell pellets was determined using a gamma counter (1282 Compugamma CS, LKB Wallac, Finland). Cellular uptake was calculated as the percentage of radioactivity in cell pellets. […]
# [1] = tested on: Gli36ΔEGFR tumours-bearing nude mice; assay: PET/CT in vivo biodistribution and tumour uptake in orthotopic Gli36ΔEGFR glioma model; details: n = 3; for Bone (SUV mean) / Brain (SUV mean) / Colon (SUV mean) / Gall bladder (SUV mean) / Heart (SUV mean) / Kidney (SUV mean) / Liver (SUV mean) / Lung (SUV mean) / Muscle (SUV mean) / Salivary gland (SUV mean) / Small instestine (SUV mean): Gli36ΔEGFR female nude mice, i.v., PET/CT; for tumour-to-contralateral healthy brain ratio (tumour SUV max/contralateral SUV mean): Gli36ΔEGFR orthotopic glioma, nude mice
# Experimental: Subsequently, we evaluated the uptake of [^18F]F-PSMA-617-NODA ([^18F]1) and [^18F]F-PSMA-617-RESCA ([^18F]2) in an orthotopic glioma model obtained with Gli36ΔEGFR cells in female nude mice. Gli36ΔEGFR tumours-bearing nude mice (n = 3) were injected i.v. with either [^18F]F-PSMA-617-NODA or [^18F]F-PSMA-617-RESCA (~ 3.8 MBq/mouse, ~ 50 pmol for [^18F]1 and ~ 170 pmol [^18F]2). Radiotracer uptake was assessed after 10, 60 and 120 min post injection by whole-body PET/CT acquisitions. Also in nude female mice, a rapid clearance of [^18F]1 in all organs and the same kinetic observed in NSG male mice (Additional file 1: S71A and B) were confirmed. […] It is interesting to note that the uptake of [^18F]1 in kidneys decreased over time in both models (Additional file 1: S71A and B), while the uptake of [^18F]F-PSMA-1007 in NSG model and [^18F]2 in nude female mice model increased (Additional file 1: S71C and D).
# Total body biodistribution of [^18F]F-PSMA-1007, [^18F]F-PSMA-617-NODA and [^18F]F-PSMA-617-RESCA was evaluated in vivo using imaging PET/CT. [^18F]F-PSMA-617-NODA uptake was compared to that of the [^18F]F-PSMA-1007 in a PSMA positive prostate tumour xenograft model (LNCaP). [^18F]F-PSMA-617-NODA and [^18F]F-PSMA-617-RESCA uptake were also evaluated using an orthotopic glioma model (Gli36ΔEGFR).
# 5 × 10^5 Gli36ΔEGFR cells were injected in the right striatum of seven to eight weeks old female nude mice (Envigo RMS s.r.l., Italy) as previously described (Valtorta et al. [2021]). Ten days after mice underwent a T2-weighted Magnetic Resonance Imaging (MRI) using a 7 T small animal magnetic resonance scanner (Bruker, BioSpec 70/30 USR, Paravision 5.1, Germany) to confirm the growth of the tumour. Then, the same mice underwent in vivo biodistribution of [^18F]F-PSMA-617-NODA and [^18F]F-PSMA-617-RESCA, on successive but non-consecutive days, using PET/CT.
# Mice were injected into a tail vein with 3.8 ± 0.1 MBq of [^18F]F-PSMA-1007, 4.0 ± 0.2 MBq of [^18F]F-PSMA-617-NODA ([^18F]1) and 3.8 ± 0.1 MBq of [^18F]F-PSMA-617-RESCA ([^18F]2), respectively.
# Total body PET/CT acquisitions were performed using PET/CT tomographs dedicated to small animals, X-ß-CUBE (Molecubes, Gent, Belgium) after 10, 60 and 120 min from tracer injection. Each acquisition lasted 30 min and mice were maintained anesthetized (4% isoflurane in induction and 2% in maintenance in air) during acquisition.
# Image quantification analysis was performed with PMOD 4.105 software (Zurich, Switzerland). Volumes of interest (VOIs) were drawn on peripheral organs (tumour, thoracic muscle, heart, liver, kidney, salivary glands, lung, small intestine, colon, bone, gall bladder) and on the healthy brain using CT images. For the glioma model, PET/CT images were co-registered to MRI images and two different VOIs were defined: (1) a control VOI covering the healthy left striatum (volume 4 mm^3) was drawn on the axial MR images, adjusted on the other imaging planes and then copied on the PET images of each mouse; (2) a second glioma-covering VOI was drawn in the tumour-affected brain hemisphere and centered on mice lesions.
# For quantification, Standardized Uptake Value (SUV) was calculated according to the formula:
# SUV = organ concentration activity [MBq/g]/(injected activity [MBq]/animal weight [g]).
# The data were expressed as standardized-uptake-values (SUVmean and SUVmax) and as tumour-to-muscle (T/M) and tumour-to-blood (T/B) ratio in PCa model and as tumour-to-contralateral (T/Cl) ratio in glioma model.
# [2] = Stability in human plasma (HPLC, radio-TLC, pellet/supernatant activity); type: in vitro ADME; details: ACN precipitation
# Experimental: Stability in plasma was evaluated mixing aliquots of [^18F]1 or [^18F]2 solutions (10 MBq for 2 h incubation and 20 MBq for 4 h incubation samples) with 200 µL of human serum. The mixtures were incubated at 37 °C. Aliquots were taken at 2 h and 4 h. Plasma pellet was precipitated with 200 µL acetonitrile and centrifuged (13,500 rpm, 10 min). The supernatant was removed, and the activity of the supernatant solution and pellet was measured using a dose calibrator (VIK-202 Comecer). The supernatant solution was analyzed injecting in RP-HPLC (diluted 1:5 in water) and Radio-TLC as above described.
# [3] = Stability in final solution (analytical HPLC and radio-TLC); type: physicochemical; details: for release of [^18F]AlF^2+: in solution
# Experimental: Chemical and radiochemical stability in the final solution were tested by analytical HPLC and radio-TLC (Additional file 1: S37–S41); samples of the purified product were analyzed up to four hours after the end of radiosynthesis, at time intervals of two hours and storing the vial at room temperature.
# Stability in solution of [^18F]F-PSMA-617-NODA ([^18F]1) and [^18F]F-PSMA-617-RESCA ([^18F]2) were evaluated injecting in RP-HPLC (for experimental conditions, see sections “(((S)-5-((S)-2-((1R,4S)-4-((4-(4,7-bis(carboxymethyl)-1,4,7-triazonan-1-yl)butanamido)methyl)cyclohexane-1-carboxamido)-3-(naphthalen-2-yl)propanamido)-1-carboxypentyl)carbamoyl)-L-glutamic acid [^18F] aluminium fluoride ([^18F] 1)” and “(((S)-5-((S)-2-((1R,4S)-4-((2-(4-((((1R,2R)-2-(bis(carboxymethyl)amino)cyclohexyl)(carboxymethyl)amino)methyl)phenyl)acetamido)methyl)cyclohexane-1-carboxamido)-3-(naphthalen-2-yl)propanamido)-1-carboxypentyl)carbamoyl)-L-glutamic acid [18F] aluminium fluoride ([18F] 2)”) samples (20 µl) of respective radiopharmaceutical solutions at t = 0 (EOS), after 2 h and after 4 h. Moreover, ≈ 7.5 kBq of [^18F]1 or [^18F]2 solution were deposited on TLC sheet. The TLC was imaged using Cyclone® Plus Phosphor Scanner and software OptiQuant™.
# [4] = [18F]2, 2 h incubation in plasma, total activity incubated 3.91 MBq
# [5] = [18F]2, 4 h incubation in plasma, total activity incubated 4.62 MBq
smiles,measurement,setting,value
"O=C(O)CC[C@H](NC(=O)N[C@@H](CCCCNC(=O)[C@H](Cc1ccc2ccccc2c1)NC(=O)[C@H]1CC[C@H](CNC(=O)CCCN2CCN(CC(=O)O)CCN(CC(=O)O)CC2)CC1)C(=O)O)C(=O)O [PSMA-617-NODA, (((S)-5-((S)-2-((1R,4S)-4-((4-(4,7-bis(carboxymethyl)-1,4,7-triazonan-1-yl)butanamido)methyl)cyclohexane-1-carboxamido)-3-(naphthalen-2-yl)propanamido)-1-carboxypentyl)carbamoyl)-L-glutamic acid]",IC50,PSMA,0.064 µM
"O=C(O)CCC(NC(=O)NC(CCCCNC(=O)C(Cc1ccc2ccccc2c1)NC(=O)C1CCC(CNC(=O)Cc2ccc(CN(CC(=O)O)C3CCCCC3N(CC(=O)O)CC(=O)O)cc2)CC1)C(=O)O)C(=O)O [PSMA-617-RESCA, (((S)-5-((S)-2-((1R,4S)-4-((2-(4-((((1R,2R)-2-(bis(carboxymethyl)amino)cyclohexyl)(carboxymethyl)amino)methyl)phenyl)acetamido)methyl)cyclohexane-1-carboxamido)-3-(naphthalen-2-yl)propanamido)-1-carboxypentyl)carbamoyl)-L-glutamic acid]",IC50,PSMA,0.02 µM
"O=C(O)CCC(NC(=O)NC(CCCCNC(=O)C(Cc1ccc2ccccc2c1)NC(=O)C1CCC(CNC(=O)Cc2ccc(CN(CC(=O)O)C3CCCCC3N(CC(=O)O)CC(=O)O)cc2)CC1)C(=O)O)C(=O)O.[18F][Al] [[^18F]F-PSMA-617-RESCA, (((S)-5-((S)-2-((1R,4S)-4-((2-(4-((((1R,2R)-2-(bis(carboxymethyl)amino)cyclohexyl)(carboxymethyl)amino)methyl)phenyl)acetamido)methyl)cyclohexane-1-carboxamido)-3-(naphthalen-2-yl)propanamido)-1-carboxypentyl)carbamoyl)-L-glutamic acid [^18F] aluminium fluoride]",Bone (SUV mean),[1]; 10 min p.i.,0.21 ± 0.03
same,Brain (SUV mean),[1]; 10 min p.i.,0.09 ± 0.02
same,Colon (SUV mean),[1]; 10 min p.i.,0.29 ± 0.23
same,Gall bladder (SUV mean),[1]; 10 min p.i.,3.28 ± 3.18
same,Heart (SUV mean),[1]; 10 min p.i.,0.35 ± 0.05
same,Kidney (SUV mean),[1]; 10 min p.i.,6.92 ± 1.16
same,Liver (SUV mean),[1]; 10 min p.i.,0.98 ± 0.15
same,Lung (SUV mean),[1]; 10 min p.i.,0.31 ± 0.01
same,Muscle (SUV mean),[1]; 10 min p.i.,0.19 ± 0.05
same,Salivary gland (SUV mean),[1]; 10 min p.i.,0.54 ± 0.14
same,Small instestine (SUV mean),[1]; 10 min p.i.,1.99 ± 1.44
same,Bone (SUV mean),[1]; 60 min p.i.,0.20 ± 0.07
same,Brain (SUV mean),[1]; 60 min p.i.,0.07 ± 0.02
same,Colon (SUV mean),[1]; 60 min p.i.,0.78 ± 1.05
same,Gall bladder (SUV mean),[1]; 60 min p.i.,5.22 ± 4.23
same,Heart (SUV mean),[1]; 60 min p.i.,0.17 ± 0.03
same,Kidney (SUV mean),[1]; 60 min p.i.,10.21 ± 0.80
same,Liver (SUV mean),[1]; 60 min p.i.,0.65 ± 0.22
same,Lung (SUV mean),[1]; 60 min p.i.,0.19 ± 0.04
same,Muscle (SUV mean),[1]; 60 min p.i.,0.12 ± 0.02
same,Salivary gland (SUV mean),[1]; 60 min p.i.,0.45 ± 0.10
same,Small instestine (SUV mean),[1]; 60 min p.i.,3.07 ± 1.02
same,Bone (SUV mean),[1]; 120 min p.i.,0.15 ± 0.11
same,Brain (SUV mean),[1]; 120 min p.i.,0.07 ± 0.01
same,Colon (SUV mean),[1]; 120 min p.i.,3.87 ± 5.37
same,Gall bladder (SUV mean),[1]; 120 min p.i.,5.07 ± 4.26
same,Heart (SUV mean),[1]; 120 min p.i.,0.11 ± 0.03
same,Kidney (SUV mean),[1]; 120 min p.i.,10.64 ± 1.25
same,Liver (SUV mean),[1]; 120 min p.i.,0.30 ± 0.11
same,Lung (SUV mean),[1]; 120 min p.i.,0.12 ± 0.03
same,Muscle (SUV mean),[1]; 120 min p.i.,0.11 ± 0.04
same,Salivary gland (SUV mean),[1]; 120 min p.i.,0.28 ± 0.10
same,Small instestine (SUV mean),[1]; 120 min p.i.,5.79 ± 2.07
same,tumour-to-contralateral healthy brain ratio (tumour SUV max/contralateral SUV mean),[1]; 60 min p.i.,2.93 ± 1.23
same,tumour-to-contralateral healthy brain ratio (tumour SUV max/contralateral SUV mean),[1]; 120 min p.i.,2.93 ± 0.08
same,Pellet activity,[2]; [4],0.45 MBq
same,Supernatant activity,[2]; [4],3.46 MBq
same,Pellet activity,[2]; [5],0.57 MBq
same,Supernatant activity,[2]; [5],4.05 MBq
same,amount of free [^18F]AlF^2+ in solution,"[3]; approximately 85 min after EOS (time of injection), supposed",< 5%
same,release of [^18F]AlF^2+,[3]; after 2 h of incubation at room temperature,4.9%
same,release of [^18F]AlF^2+,[3]; at EOS,1.2%
same,release of [^18F]AlF^2+,"[3]; room temperature, after 4 h",10%
